Measurements reported in patent US8247211B2, “Glycopeptide antibiotics” (American Cyanamid Company, priority 2001, dated 2012).

Assays:
Experiment in all cases: In vitro antibacterial evaluation: minimum inhibitory concentration (MIC), broth dilution method
Format in all cases: cell-based
Streptococcus sp. = test system: Streptococcus sp.
How it was run: (§1)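 Broth dilution per NCCLS M7-A2 in Muller-Hinton II […], inoculum 5×10^5 CFU/mL, antibiotic tested over 64-0.06 μg/mL. MIC is taken as the lowest concentration that inhibits growth. Panel includes recent clinical isolates resistant to methicillin, penicillin and/or vancomycin.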

Staphylococcus sp. = test system: Staphylococcus sp.
How it was run: as §1

Enterococcus sp. = test system: Enterococcus sp.
How it was run: as §1

Escherichia coli = test system: Escherichia coli
How it was run: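 Susceptibility determined by NCCLS-recommended broth dilution (M7-A2), Muller-Hinton II […]. Concentration span 64-0.06 μg/mL, inoculum 5×10^5 CFU/mL. Isolates include strains resistant to methicillin, penicillin and/or vancomycin.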

[1] = broth dilution, 5×10^5 CFU/mL, 18 hours at 35° C.
[2] = strain ATCC 29213, broth dilution, 18 hours at 35° C.
[3] = strain GC 1131, broth dilution, 18 hours at 35° C.
[4] = strain GC 3051, broth dilution, 18 hours at 35° C.
[5] = strain GC 3053, broth dilution, 18 hours at 35° C.
[6] = strain GC 4541, broth dilution, 18 hours at 35° C.
[7] = strain GC 4542, broth dilution, 18 hours at 35° C.
[8] = strain GC 4543, broth dilution, 18 hours at 35° C.
[9] = strain GC 4544, broth dilution, 18 hours at 35° C.
[10] = strain GC 4545, broth dilution, 18 hours at 35° C.
[11] = strain GC 4546, broth dilution, 18 hours at 35° C.
[12] = strain GC 4547, broth dilution, 18 hours at 35° C.
[13] = strain GC 4548, broth dilution, 18 hours at 35° C.
[14] = strain GC 4549, broth dilution, 18 hours at 35° C.
[15] = strain GC 4551, broth dilution, 18 hours at 35° C.
[16] = strain GC 6257, broth dilution, 18 hours at 35° C.
[17] = 5×10^5 CFU/mL, 18 hours at 35° C.
[18] = broth dilution, inoculum 5×10^5 CFU/mL, 18 hours at 35° C.

CC(c1ccccc1)C1NC(=O)CNC(=O)C(CO)NC(=O)C(C(O)C2CNC(=N)N2C2OC(CO)C(O)C(O)C2O)NC(=O)C(C(O)C2CNC(=N)N2)NC(=O)C(Cc2ccc(OC3OC(CO)C(OC4OC5COC(c6ccsc6)OC5C(O)C4O)C(O)C3O)cc2)NC1=O (stereo not drawn) [Example 133, Cyclo[glycyl-β-methylphenylalanyl-O-[4-O-[4,6-O-(3-thienylmethylene)hexopyranosyl]-hexopyranosyl]tyrosyl-3-(2-iminoimidazolidin-4-yl)seryl-3-(3-hexopyranosyl-2-iminoimidazolidin-4-yl)serylseryl]]
64 µg/mL: MIC Escherichia coli (ATCC 25922) (Escherichia coli; [17])
1 µg/mL: MIC Coagulase Negative Staphylococcus (GC 4547) (Staphylococcus sp.; [1]) | MIC Coagulase Negative Staphylococcus (GC 4549) (Staphylococcus sp.; [1]) | MIC Coagulase Negative Staphylococcus (GC 4551) (Staphylococcus sp.; [1]) | MIC Coagulase Negative Staphylococcus (GC 6257) (Staphylococcus sp.; [1]) | MIC Staphylococcus aureus-SMITH (GC 4543) (Staphylococcus sp.; [1]) | MIC Staphylococcus haemolyticus (GC 4546) (Staphylococcus sp.; [1]) | MIC Staphylococcus aureus (ATCC 29213) (Staphylococcus sp.; strain ATCC 29213) | MIC Staphylococcus aureus (ATCC 29213) (Staphylococcus sp.; [2]) | MIC Staphylococcus aureus (GC 3051) (Staphylococcus sp.; strain GC 3051) | MIC Staphylococcus aureus (GC 3051) (Staphylococcus sp.; [4]) | MIC Staphylococcus aureus (GC 4541) (Staphylococcus sp.; strain GC 4541) | MIC Staphylococcus aureus (GC 4541) (Staphylococcus sp.; [6]) | MIC Staphylococcus aureus-SMITH (GC 4543) (Staphylococcus sp.; [8]) | MIC Staphylococcus aureus (GC 4545) (Staphylococcus sp.; strain GC 4545) | MIC Staphylococcus aureus (GC 4545) (Staphylococcus sp.; [10]) | MIC Staphylococcus haemolyticus (GC 4546) (Staphylococcus sp.; [11]) | MIC Coagulase Negative Staphylococcus (GC 4547) (Staphylococcus sp.; [12]) | MIC Coagulase Negative Staphylococcus (GC 4549) (Staphylococcus sp.; [14]) | MIC Coagulase Negative Staphylococcus (GC 4551) (Staphylococcus sp.; [15]) | MIC Coagulase Negative Staphylococcus (GC 6257) (Staphylococcus sp.; [16])
2 µg/mL: MIC Staphylococcus aureus (GC 1131) (Staphylococcus sp.; strain GC 1131) | MIC Staphylococcus aureus (GC 1131) (Staphylococcus sp.; [3]) | MIC Staphylococcus aureus (GC 4542) (Staphylococcus sp.; strain GC 4542) | MIC Staphylococcus aureus (GC 4542) (Staphylococcus sp.; [7]) | MIC Staphylococcus aureus (GC 4544) (Staphylococcus sp.; strain GC 4544) | MIC Staphylococcus aureus (GC 4544) (Staphylococcus sp.; [9]) | MIC Enterococccus faecium (GC 4557) (Enterococcus sp.; [1])
4 µg/mL: MIC Streptococcus pneumoniae (GC 4565) (Streptococcus sp.; [1]) | MIC Staphylococcus aureus (GC 3053) (Staphylococcus sp.; strain GC 3053) | MIC Staphylococcus aureus (GC 3053) (Staphylococcus sp.; [5]) | MIC Enterococccus faecalis (GC 6189) (Enterococcus sp.; [1]) | MIC Enterococcus faecalis (GC 2242) (Enterococcus sp.; [1])
8 µg/mL: MIC Enterococccus avium (GC 4558) (Enterococcus sp.; [1]) | MIC Enterococccus faecalis (ATCC 29212) (Enterococcus sp.; [1]) | MIC Enterococccus faecalis (GC 2691) (Enterococcus sp.; [1]) | MIC Enterococccus faecalis (GC 3059) (Enterococcus sp.; [1]) | MIC Enterococccus faecalis (GC 4552) (Enterococcus sp.; [1]) | MIC Enterococccus faecalis (GC 4553) (Enterococcus sp.; [1]) | MIC Enterococccus faecalis (GC 4554) (Enterococcus sp.; [1]) | MIC Enterococccus faecium (GC 2243) (Enterococcus sp.; [1]) | MIC Enterococccus faecium (GC 4556) (Enterococcus sp.; [1])
32 µg/mL: MIC Escherichia coli (GC 4559) (Escherichia coli; [17])
<0.5 µg/mL: MIC Streptococcus agalactiae (GC 4564) (Streptococcus sp.; [1]) | MIC Streptococcus pneumoniae (GC 1894) (Streptococcus sp.; [1]) | MIC Streptococcus pneumonine (ATCC 6301) (Streptococcus sp.; [1]) | MIC Streptococcus pyogenes (GC 4563) (Streptococcus sp.; [1]) | MIC Coagulase Negative Staphylococcus (GC 4548) (Staphylococcus sp.; [1]) | MIC Coagulase Negative Staphylococcus (GC 4548) (Staphylococcus sp.; [13]) | MIC Escherichia coli (GC 4560) (Escherichia coli; [17])

CC(C)=CCOc1cccc(C2OCC3OC(OC4C(CO)OC(Oc5ccc(CC6NC(=O)C(C(C)c7ccccc7)NC(=O)CNC(=O)C(CO)NC(=O)C(C(O)C7CNC(=N)N7C7OC(CO)C(O)C(O)C7O)NC(=O)C(C(O)C7CNC(=N)N7)NC6=O)cc5)C(O)C4O)C(O)C(O)C3O2)c1 (stereo not drawn) [Example 165]
>64 µg/mL: MIC Escherichia coli (ATCC 25922) (Escherichia coli; strain ATCC 25922) | MIC Escherichia coli (GC 4559) (Escherichia coli; strain GC 4559)
32 µg/mL: MIC Staphylococcus aureus (GC 3051) (Staphylococcus sp.; [1]) | MIC Staphylococcus aureus (GC 3051) (Staphylococcus sp.; [4]) | MIC Enterococcus faecalis (GC 4554) (Enterococcus sp.; [18]) | MIC Enterococcus faecalis (GC 4554) (Enterococcus sp.; strain GC 4554)
1 µg/mL: MIC Streptococcus agalactiae (GC 4564) (Streptococcus sp.; [18]) | MIC Streptococcus agalactiae (GC 4564) (Streptococcus sp.; strain GC 4564)
<0.06 µg/mL: MIC Streptococcus pneumoniae (GC 1894) (Streptococcus sp.; [18]) | MIC Streptococcus pneumoniae (GC 1894) (Streptococcus sp.; strain GC 1894)
8 µg/mL: MIC Coagulase Negative Staphylococcus (GC 4548) (Staphylococcus sp.; [1]) | MIC Coagulase Negative Staphylococcus (GC 4549) (Staphylococcus sp.; [1]) | MIC Coagulase Negative Staphylococcus (GC 6257) (Staphylococcus sp.; [1]) | MIC Coagulase Negative Staphylococcus (GC 4548) (Staphylococcus sp.; [13]) | MIC Coagulase Negative Staphylococcus (GC 4549) (Staphylococcus sp.; [14]) | MIC Coagulase Negative Staphylococcus (GC 6257) (Staphylococcus sp.; [16])
16 µg/mL: MIC Coagulase Negative Staphylococcus (GC 4547) (Staphylococcus sp.; [1]) | MIC Coagulase Negative Staphylococcus (GC 4551) (Staphylococcus sp.; [1]) | MIC Staphylococcus aureus (ATCC 29213) (Staphylococcus sp.; [1]) | MIC Staphylococcus aureus (GC 1131) (Staphylococcus sp.; [1]) | MIC Staphylococcus aureus (GC 3053) (Staphylococcus sp.; [1]) | MIC Staphylococcus aureus (GC 4541) (Staphylococcus sp.; [1]) | MIC Staphylococcus aureus (GC 4542) (Staphylococcus sp.; [1]) | MIC Staphylococcus aureus (GC 4544) (Staphylococcus sp.; [1]) | MIC Staphylococcus aureus (GC 4545) (Staphylococcus sp.; [1]) | MIC Staphylococcus aureus-SMITH (GC 4543) (Staphylococcus sp.; [1]) | MIC Staphylococcus haemolyticus (GC 4546) (Staphylococcus sp.; [1]) | MIC Staphylococcus aureus (ATCC 29213) (Staphylococcus sp.; [2]) | MIC Staphylococcus aureus (GC 1131) (Staphylococcus sp.; [3]) | MIC Staphylococcus aureus (GC 3053) (Staphylococcus sp.; [5]) | MIC Staphylococcus aureus (GC 4541) (Staphylococcus sp.; [6]) | MIC Staphylococcus aureus (GC 4542) (Staphylococcus sp.; [7]) | MIC Staphylococcus aureus-SMITH (GC 4543) (Staphylococcus sp.; [8]) | MIC Staphylococcus aureus (GC 4544) (Staphylococcus sp.; [9]) | MIC Staphylococcus aureus (GC 4545) (Staphylococcus sp.; [10]) | MIC Staphylococcus haemolyticus (GC 4546) (Staphylococcus sp.; [11]) | MIC Coagulase Negative Staphylococcus (GC 4547) (Staphylococcus sp.; [12]) | MIC Coagulase Negative Staphylococcus (GC 4551) (Staphylococcus sp.; [15]) | MIC Enterococcus avium (GC 4558) (Enterococcus sp.; [18]) | MIC Enterococcus faecalis (ATCC 29212) (Enterococcus sp.; [18]) | MIC Enterococcus faecalis (GC 2242) (Enterococcus sp.; [18]) | MIC Enterococcus faecalis (GC 2691) (Enterococcus sp.; [18]) | MIC Enterococcus faecalis (GC 3059) (Enterococcus sp.; [18]) | MIC Enterococcus faecalis (GC 4552) (Enterococcus sp.; [18]) | MIC Enterococcus faecalis (GC 4553) (Enterococcus sp.; [18]) | MIC Enterococcus faecalis (GC 6189) (Enterococcus sp.; [18]) | MIC Enterococcus faecium (GC 2243) (Enterococcus sp.; [18]) | MIC Enterococcus faecium (GC 4556) (Enterococcus sp.; [18]) | MIC Enterococcus faecium (GC 4557) (Enterococcus sp.; [18]) | MIC Enterococcus faecalis (ATCC 29212) (Enterococcus sp.; strain ATCC 29212) | MIC Enterococcus faecalis (GC 2242) (Enterococcus sp.; strain GC 2242) | MIC Enterococcus faecium (GC 2243) (Enterococcus sp.; strain GC 2243) | MIC Enterococcus faecalis (GC 2691) (Enterococcus sp.; strain GC 2691) | MIC Enterococcus faecalis (GC 3059) (Enterococcus sp.; strain GC 3059) | MIC Enterococcus faecalis (GC 4552) (Enterococcus sp.; strain GC 4552) | MIC Enterococcus faecalis (GC 4553) (Enterococcus sp.; strain GC 4553) | MIC Enterococcus faecium (GC 4556) (Enterococcus sp.; strain GC 4556) | MIC Enterococcus faecium (GC 4557) (Enterococcus sp.; strain GC 4557) | MIC Enterococcus avium (GC 4558) (Enterococcus sp.; strain GC 4558) | MIC Enterococcus faecalis (GC 6189) (Enterococcus sp.; strain GC 6189) | MIC Escherichi coli (GC 4560) (Escherichia coli; strain GC 4560)
0.12 µg/mL: MIC Streptococcus pneumoniae (ATCC 6301) (Streptococcus sp.; [18]) | MIC Streptococcus pneumoniae (GC 4565) (Streptococcus sp.; [18]) | MIC Streptococcus pyogenes (GC 4563) (Streptococcus sp.; [18]) | MIC Streptococcus pneumoniae (ATCC 6301) (Streptococcus sp.; strain ATCC 6301) | MIC Streptococcus pyogenes (GC 4563) (Streptococcus sp.; strain GC 4563) | MIC Streptococcus pneumoniae (GC 4565) (Streptococcus sp.; strain GC 4565)
